Data set [1] concerns the target nicotinic receptors comprising the α7 subunit (Rattus norvegicus, UniProt Q05941). The experiment in a line: biochemical. It is filed as binding.

pIC50: −log10 of the molar value. Counter-ions that a name gives are not always drawn.

Sequence of nicotinic receptors comprising the α7 subunit (Q05941 23-502): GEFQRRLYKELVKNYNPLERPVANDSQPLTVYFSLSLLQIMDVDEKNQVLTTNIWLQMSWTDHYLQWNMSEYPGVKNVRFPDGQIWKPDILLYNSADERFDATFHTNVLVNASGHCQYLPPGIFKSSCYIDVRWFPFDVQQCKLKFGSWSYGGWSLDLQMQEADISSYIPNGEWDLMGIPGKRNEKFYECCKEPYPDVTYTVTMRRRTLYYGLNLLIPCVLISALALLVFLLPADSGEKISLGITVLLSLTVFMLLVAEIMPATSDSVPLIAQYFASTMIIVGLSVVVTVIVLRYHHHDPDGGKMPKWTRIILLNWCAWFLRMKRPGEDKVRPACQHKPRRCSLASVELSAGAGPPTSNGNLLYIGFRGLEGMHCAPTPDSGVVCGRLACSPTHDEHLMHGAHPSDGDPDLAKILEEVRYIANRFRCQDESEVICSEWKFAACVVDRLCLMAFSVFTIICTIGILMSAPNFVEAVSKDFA

What is called pIC50 is the IC50 on a negative log10 scale, so that one unit is a factor of ten. Low readings indicate a large IC50, high ones a small IC50. In turn, `c1cnc2ccc(-c3ccc(C45CCN(CC4)C5)cn3)cc2c1` [Compound 12, 6-[5-(1-azabicyclo[2.2.1]hept-4-yl)pyridin-2-yl]quinoline] gave a pIC50 in data set [1] of 7.43.

Broadly, the melting point is the temperature, or range, at which the solid turns liquid. As for `Fc1cccc(-c2ccc(C34CCN(CC3)C4)cn2)c1` [Compound 19, 4-[6-(3-fluorophenyl)pyridin-3-yl]-1-azabicyclo[2.2.1]heptane], the melting point lay within 88 to 90 °C. The negative logarithm of the IC50 (pIC50) in data set [1] is 7.86.

In turn, `c1cc2c(cc1-c1ccc(C34CCN(CC3)C4)cn1)OCO2` [Compound 16, 4-[6-(1,3-benzodioxol-5-yl)pyridin-3-yl]-1-azabicyclo[2.2.1]heptane] showed a melting point of 256 to 258 °C. In data set [1], this molecule showed a pIC50 of 8.04.

With `FC(F)(F)c1cccc(-c2ccc(C34CCCN(CCC3)C4)cn2)c1` (as salt: HBr), the melting point was 155 to 157 °C.

Molecule `COc1ccc(-c2ccc(C34CCN(CC3)C4)cn2)c(OC)c1` (as salt: HBr) had a melting point of 195 to 197 °C. For `FC(F)(F)Oc1cccc(-c2ccc(C34CCN(CC3)C4)cn2)c1` (as salt: HCl), the melting point was 152 to 154 °C.

Turning to `c1cc(-c2ccc(C34CCN(CC3)C4)cn2)cc(-n2cccn2)c1` [Compound 113, 4-[6-(3-(pyrazol-1-yl)phenyl)pyridin-3-yl]-1-azabicyclo[2.2.1]heptane], the melting point was 114 to 116 °C. In data set [1], the negative logarithm of the IC50 (pIC50) was 8.33. As to `CC(=O)c1cccc(-c2ccc(C34CCCN(CCC3)C4)cn2)c1` (as salt: HBr), the melting point was in the range of 284 to 285 °C. `CC(C)(C)OC(=O)N1CCN(c2ccc(-c3ccc(C45CCN(CC4)C5)cn3)cn2)CC1` displayed a melting point of 216 to 218 °C. Molecule `c1ccc2sc(-c3ccc(C45CCN(CC4)C5)cn3)cc2c1` gave a melting point of 202 to 203 °C. On the same count and under the same terms, in the case of `COc1cccc(-c2ccc(C34CCCN(CCC3)C4)cn2)c1F` it was 144 to 146 °C; in that of `Fc1cccc(-c2ccc(C34CCCN(CCC3)C4)cn2)c1`, 102 to 104 °C; in that of `FC(F)(F)c1cc(-c2ccc(C34CCN(CC3)C4)cn2)cc(C(F)(F)F)c1`, 117 to 119 °C.

The record behind these values is US8759343B2 (priority 2007, dated 2014).
